ChEMBL document CHEMBL3421598, “Structure-activity relationships of the prototypical TRPM8 agonist icilin” (Bioorg Med Chem Lett, 2015)

Tests used:
Type in all cases: cell-based
[1] = target: Transient receptor potential cation channel subfamily M member 8 (Rattus norvegicus) (UniProt Q8R455); experiment: Agonist activity at rat TRPM8 expressed in HEK293 cells assessed as induction of intracellular Ca2+ level by Fluo-4-AM dye based spectrofluorimetry relative to 4 uM ionomycin
[2] = target: T1, Transient receptor potential cation channel subfamily M member 8 (Rattus norvegicus, UniProt Q8R455); experiment: Antagonist activity against rat TRPM8 expressed in HEK293 cells assessed as inhibition of icilin-induced intracellular Ca2+ level pre-treated 5 mins before icilin stimulation by Fluo-4-AM dye based spectrofluorimetry
[3] = target: Transient receptor potential cation channel subfamily V member 1 (Homo sapiens, UniProt Q8NER1); experiment: Antagonist activity against human TRPV1 expressed in HEK293 cells assessed as inhibition of capsaicin-induced intracellular Ca2+ level pre-treated 5 mins before capsaicin stimulation by Fluo-4-AM dye based spectrofluorimetry
[4] = target: T1, Transient receptor potential cation channel subfamily M member 8; experiment: Agonist activity at rat TRPM8 expressed in HEK293 cells assessed as induction of intracellular Ca2+ level by Fluo-4-AM dye based spectrofluorimetry

Transient receptor potential cation channel subfamily V member 1, sequence (Q8NER1 whole entry): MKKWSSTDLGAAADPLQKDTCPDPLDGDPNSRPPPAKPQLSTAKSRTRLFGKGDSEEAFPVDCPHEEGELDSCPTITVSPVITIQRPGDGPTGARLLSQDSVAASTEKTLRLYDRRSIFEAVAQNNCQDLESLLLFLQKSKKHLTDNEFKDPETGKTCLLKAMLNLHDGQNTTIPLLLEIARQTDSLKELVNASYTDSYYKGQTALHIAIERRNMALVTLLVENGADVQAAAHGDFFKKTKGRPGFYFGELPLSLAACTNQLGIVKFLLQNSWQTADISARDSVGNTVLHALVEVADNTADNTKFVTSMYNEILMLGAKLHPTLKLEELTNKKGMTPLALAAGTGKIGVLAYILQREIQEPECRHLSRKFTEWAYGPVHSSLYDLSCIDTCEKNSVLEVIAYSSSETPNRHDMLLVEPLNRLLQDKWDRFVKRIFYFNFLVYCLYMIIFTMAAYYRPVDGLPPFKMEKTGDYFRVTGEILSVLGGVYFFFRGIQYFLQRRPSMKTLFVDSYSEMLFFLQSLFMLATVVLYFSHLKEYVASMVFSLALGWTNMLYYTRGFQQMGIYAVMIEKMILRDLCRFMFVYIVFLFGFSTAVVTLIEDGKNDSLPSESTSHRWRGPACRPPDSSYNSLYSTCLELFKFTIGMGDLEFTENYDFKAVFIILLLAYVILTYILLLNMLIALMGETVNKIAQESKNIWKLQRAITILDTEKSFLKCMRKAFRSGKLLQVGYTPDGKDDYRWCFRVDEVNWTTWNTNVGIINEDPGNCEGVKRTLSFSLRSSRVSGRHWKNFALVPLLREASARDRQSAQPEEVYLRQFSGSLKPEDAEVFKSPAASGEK
Transient receptor potential cation channel subfamily M member 8 (Rattus norvegicus), sequence (Q8R455 whole entry, looked up): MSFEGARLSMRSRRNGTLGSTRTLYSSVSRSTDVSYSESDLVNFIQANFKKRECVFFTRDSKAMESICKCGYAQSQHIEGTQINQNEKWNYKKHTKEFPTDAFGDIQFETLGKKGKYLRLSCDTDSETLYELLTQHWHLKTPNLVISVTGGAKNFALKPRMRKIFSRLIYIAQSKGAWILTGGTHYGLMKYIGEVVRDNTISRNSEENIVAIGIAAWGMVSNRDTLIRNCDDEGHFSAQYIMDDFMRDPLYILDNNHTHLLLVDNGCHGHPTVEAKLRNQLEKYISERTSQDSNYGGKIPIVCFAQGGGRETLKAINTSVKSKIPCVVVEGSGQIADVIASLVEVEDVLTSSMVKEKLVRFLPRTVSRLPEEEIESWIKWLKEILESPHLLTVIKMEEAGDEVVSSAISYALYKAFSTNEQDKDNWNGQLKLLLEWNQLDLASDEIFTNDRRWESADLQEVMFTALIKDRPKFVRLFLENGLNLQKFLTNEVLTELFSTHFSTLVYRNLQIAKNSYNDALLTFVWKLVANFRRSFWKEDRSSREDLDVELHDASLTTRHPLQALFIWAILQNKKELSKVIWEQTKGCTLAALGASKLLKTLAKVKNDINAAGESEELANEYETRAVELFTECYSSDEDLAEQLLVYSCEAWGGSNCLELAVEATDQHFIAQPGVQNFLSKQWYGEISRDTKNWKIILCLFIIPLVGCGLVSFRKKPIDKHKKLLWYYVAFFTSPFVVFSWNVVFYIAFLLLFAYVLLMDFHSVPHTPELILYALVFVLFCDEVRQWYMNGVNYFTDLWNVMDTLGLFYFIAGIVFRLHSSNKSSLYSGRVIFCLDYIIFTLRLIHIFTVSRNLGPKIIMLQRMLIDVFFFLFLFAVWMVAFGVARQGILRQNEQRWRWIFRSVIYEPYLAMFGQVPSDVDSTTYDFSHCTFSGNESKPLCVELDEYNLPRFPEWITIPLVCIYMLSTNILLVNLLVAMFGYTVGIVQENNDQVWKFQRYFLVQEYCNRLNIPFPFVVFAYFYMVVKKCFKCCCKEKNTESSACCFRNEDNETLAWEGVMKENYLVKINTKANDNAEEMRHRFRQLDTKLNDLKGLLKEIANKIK
T1 sequence (Q8R455 whole entry): as the sequence (Q8R455 whole entry, looked up) above

Compound | Efficacy [1] | IC50 [2] | IC50 [3] | EC50 [4]
CC(C)(C)c1cccc(NC(=O)/C=C/c2cccc([N+](=O)[O-])c2)c1 | – | 0.6 µM | > 10 µM | –
O=C1NC(c2ccc([N+](=O)[O-])cc2)=CCN1c1cccc(O)c1 | < 10% | 10.9 µM | – | –
O=C(CCc1cccc([N+](=O)[O-])c1)Nc1cccc(I)c1 | – | 0.43 µM | 4.3 µM | –
COc1ccccc1N1CC2=C(NC1=O)c1ccccc1CC2 | < 10% | 6.6 µM | – | –
Cc1ccccc1NC(=O)/C=C/c1cccc([N+](=O)[O-])c1 | – | 2 µM | > 10 µM | –
O=C1NC(c2cccc([N+](=O)[O-])c2)=CCN1c1ccccc1O [ICILLIN] | 75.1% | 0.058 µM | – | –
O=C1NC(c2cccc([N+](=O)[O-])c2)=CCN1c1ccccc1CO | 20.4% | 12 µM | – | 5 µM
CCNC(=O)c1ccccc1N1CC=C(c2cccc([N+](=O)[O-])c2)NC1=O | < 10% | 22 µM | – | –
O=C1NC(c2cccc([N+](=O)[O-])c2)=CCN1c1cccc(Cl)c1 | 45.6% | 4.4 µM | – | 1.5 µM
O=C(/C=C/c1cccc([N+](=O)[O-])c1)Nc1cccc(CO)c1 | – | 6.5 µM | 6.1 µM | –
O=C1NC(c2cccc([N+](=O)[O-])c2)=CCN1c1cccc(O)c1 | 62% | 1.5 µM | – | 1.7 µM
O=C1NC(c2cccc([N+](=O)[O-])c2)=CCN1c1cccc(I)c1 | 30.9% | 0.47 µM | – | 0.3 µM
O=C1NC(c2cccc([N+](=O)[O-])c2)=CCN1c1ccccc1Br | 48.2% | 1.03 µM | – | 0.62 µM
COc1cccc(NC(=O)/C=C/c2cccc([N+](=O)[O-])c2)c1 | – | 1.1 µM | 2.1 µM | –
CS(=O)(=O)Nc1ccccc1NC(=O)/C=C/c1cccc([N+](=O)[O-])c1 | – | > 10 µM | > 10 µM | –
O=c1[nH]c(-c2cccc([N+](=O)[O-])c2)cn1-c1ccccc1O | < 10% | 3.5 µM | – | –
O=C(/C=C/c1cccc([N+](=O)[O-])c1)Nc1cccc(Cl)c1 | – | 0.17 µM | 7.1 µM | –

Compound | Efficacy [1] | IC50 [2] | IC50 [3] | EC50 [4]
Cc1ccc(O)c(N2CC=C(c3ccc([N+](=O)[O-])cc3)NC2=O)c1 | < 10% | 16.9 µM | – | –
COc1cccc(N2CC=C(c3cccc([N+](=O)[O-])c3)N(C)C2=O)c1 | < 10% | 68.4 µM | – | –
COc1ccccc1NC(=O)/C=C/c1cccc([N+](=O)[O-])c1 | – | 1.8 µM | 10.7 µM | –
O=C1NC(c2cccc([N+](=O)[O-])c2)=CCN1c1ccccc1Cl | 41.8% | 0.95 µM | – | 0.89 µM
O=C1NC(c2cccc([N+](=O)[O-])c2)=CCN1c1ccccc1I | 52.7% | 3.2 µM | – | 1.2 µM
CC(C)c1cccc(NC(=O)/C=C/c2cccc([N+](=O)[O-])c2)c1 | – | 0.17 µM | 4.1 µM | –
O=C(/C=C/c1cccc([N+](=O)[O-])c1)Nc1ccccc1Br | – | 1.5 µM | > 10 µM | –
Cc1cccc(NC(=O)/C=C/c2cccc([N+](=O)[O-])c2)c1 | – | 0.4 µM | > 10 µM | –
CS(=O)(=O)Nc1cccc(-n2cc(-c3cccc([N+](=O)[O-])c3)[nH]c2=O)c1 | < 10% | 26 µM | – | –
COc1cccc(-n2cc(-c3cccc([N+](=O)[O-])c3)[nH]c2=O)c1 | < 10% | 33.9 µM | – | –
CC1=C(c2cccc([N+](=O)[O-])c2)NC(=O)N(c2ccccc2O)C1 | 10.8% | 14.3 µM | – | > 10 µM
Cc1ccc(N2CC=C(c3cccc([N+](=O)[O-])c3)NC2=O)c(O)c1 | 46% | 1.4 µM | – | 1.2 µM
NC(=O)c1ccccc1N1CC=C(c2cccc([N+](=O)[O-])c2)NC1=O | 47.2% | 8.3 µM | – | 15.4 µM
O=C1NC(c2ccc([N+](=O)[O-])cc2)=CCN1c1ccccc1O | < 10% | 5.7 µM | – | –
COc1ccccc1N1CC=C(c2cccc([N+](=O)[O-])c2)NC1=O | 18.5% | 8.3 µM | – | 1.1 µM
O=C1NC(c2cccc([N+](=O)[O-])c2)=CCN1c1cccc(CO)c1 | < 10% | 15.7 µM | – | –
O=C1NC2=C(CCc3c2cccc3[N+](=O)[O-])CN1c1ccccc1O | < 10% | 3.1 µM | – | –

Other lines, results leading:

Efficacy [1] | IC50 [2] | IC50 [3] | EC50 [4] | Compound
< 10% | 8.7 µM | – | – | O=C1NC(c2cccc([N+](=O)[O-])c2)=CCN1c1ccccc1F
– | 1.7 µM | > 10 µM | – | O=C(/C=C/c1cccc([N+](=O)[O-])c1)Nc1ccccc1Cl
– | 1.9 µM | > 10 µM | – | O=C(/C=C/c1cccc([N+](=O)[O-])c1)Nc1ccccc1O
< 10% | 11.4 µM | – | – | NC(=O)c1ccccc1N1CC=C(c2ccc([N+](=O)[O-])cc2)NC1=O
< 10% | 11.4 µM | – | – | O=C1NC(c2ccc([N+](=O)[O-])cc2)=CCN1c1ccc(O)cc1
47% | 1.5 µM | – | 0.6 µM | O=C1NC(c2cccc([N+](=O)[O-])c2)=CCN1c1cccc(Br)c1
< 10% | 40 µM | – | – | COc1ccc(N2CC=C(c3cccc([N+](=O)[O-])c3)NC2=O)cc1
– | > 10 µM | > 10 µM | – | O=C(/C=C/c1cccc([N+](=O)[O-])c1)Nc1ccccc1CO
< 10% | 46.4 µM | – | – | CS(=O)(=O)Nc1cccc(N2CC=C(c3cccc([N+](=O)[O-])c3)NC2=O)c1
< 10% | 11.4 µM | – | – | COc1ccccc1N1CC=C(c2ccc([N+](=O)[O-])cc2)NC1=O
– | 0.14 µM | 2.5 µM | – | O=C(/C=C/c1cccc([N+](=O)[O-])c1)Nc1cccc(Br)c1
57.5% | 0.24 µM | – | 0.13 µM | COc1cccc(N2CC=C(c3cccc([N+](=O)[O-])c3)NC2=O)c1
69.4% | 0.26 µM | – | 0.14 µM | Cc1ccc(O)c(N2CC=C(c3cccc([N+](=O)[O-])c3)NC2=O)c1
– | 0.073 µM | 1.2 µM | – | O=C(/C=C/c1cccc([N+](=O)[O-])c1)Nc1cccc(I)c1
– | > 10 µM | > 10 µM | – | O=C(/C=C/c1cccc([N+](=O)[O-])c1)Nc1cccc(O)c1
< 10% | 18.1 µM | – | – | O=C1NC2=C(CCc3ccc([N+](=O)[O-])cc32)CN1c1ccccc1O
– | 1.05 µM | > 10 µM | – | O=C(/C=C/c1cccc([N+](=O)[O-])c1)Nc1ccccc1I
< 10% | 11.3 µM | – | – | O=C1NC(c2cccc([N+](=O)[O-])c2)=CCN1c1ccc(O)cc1
– | 6.1 µM | > 10 µM | – | CC(C)c1ccccc1NC(=O)/C=C/c1cccc([N+](=O)[O-])c1
< 10% | 5.7 µM | – | – | O=C1NC2=C(CCc3ccccc32)CN1c1ccccc1O
